Experimental data published in patent publication US10266577B2, “GLP-1 derivatives, and uses thereof” (Novo Nordisk A/S, priority 2013, dated 2019).
Numbered stars: 1 amine (or outer) side, 2 acyl side, 3 side chain; on linkers, the order of the positions; unused ones are H or OH. Bridge positions count the residues as written; N and C are the ends. Square brackets hold non-standard residues; d marks the D form. Ends that are not written are not given here. I, II: the chains in the order shown. * marks the point of attachment. C18 diacid = O=C(O)CCCCCCCCCCCCCCCCC(=O)*; γGlu = O=C(O)[C@H](CCC(=O)[*:2])N[*:1]; Aib = CC(C)(N)C(=O)O

What was measured:
human GLP-1 receptor [1] = biological target: T1, human GLP-1 receptor (Homo sapiens, UniProt P43220); experiment: GLP-1 receptor binding: competitive binding assay (125I-GLP-1, SPA) on isolated membranes at low and high HSA; settings: displacement of 125I-GLP-1; for IC50: high serum albumin (2.0% HSA final assay concentration)
T1 construct: expressed in transfected cells; host or cells: BHK cells (parent line BHKTS13), clone FCW467-12A; membrane preparation
T1 sequence (P43220 24-463): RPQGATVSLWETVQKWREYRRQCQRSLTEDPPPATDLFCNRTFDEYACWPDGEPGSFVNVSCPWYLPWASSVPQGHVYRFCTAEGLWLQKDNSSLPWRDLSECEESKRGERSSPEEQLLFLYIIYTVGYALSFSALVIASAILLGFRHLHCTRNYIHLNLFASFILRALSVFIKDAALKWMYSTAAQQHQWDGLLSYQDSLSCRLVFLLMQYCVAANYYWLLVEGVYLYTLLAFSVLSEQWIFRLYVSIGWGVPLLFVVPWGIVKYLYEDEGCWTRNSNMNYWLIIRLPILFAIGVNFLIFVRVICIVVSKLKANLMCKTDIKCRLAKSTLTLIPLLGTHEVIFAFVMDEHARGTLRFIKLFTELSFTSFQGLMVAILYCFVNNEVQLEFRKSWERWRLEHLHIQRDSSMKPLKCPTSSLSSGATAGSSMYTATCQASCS
Procedure: The purpose of this example is to test the receptor binding of the GLP-1 derivatives in vitro. The receptor binding is a measure of affinity of a derivative for the human GLP-1 receptor.
In this type of assay a labelled ligand (in this case ^125I-GLP-1) is bound to the receptor. Each derivative is added in a series of concentrations to isolated membranes containing the human GLP-1 receptor and displacement of the labelled ligand is monitored. The receptor binding is reported as the concentration at which half of the labelled ligand is displaced from the receptor, the IC50 value.
The following chemicals were used in the assay: Human serum albumin (HSA) (Sigma A1653), DMEM w/o phenol red (Gibco 11880-028), Pen/strep (Invitrogen 15140-122), G418 (Invitrogen 10131-027), 1 M Hepes (Gibco 15630), EDTA (Invitrogen 15575-038), PBS (Invitrogen 14190-094), fetal calf serum (Invitrogen 16140-071), EGTA, MgCl2 (Merck 1.05832.1000), Tween 20 (Amresco 0850C335), SPA particles (wheat germ agglutinin (WGA) SPA beads, Perkin Elmer RPNQ0001), [^125I]-GLP-1]-(7-36)NH2 (produced in-house), OptiPlate™-96 (Packard 6005290).
Buffer 1 consisted of 20 mM Na-HEPES plus 10 mM EDTA and pH was adjusted to 7.4. Buffer 2 consisted of 20 mM Na-HEPES plus 0.1 mM EDTA and pH was adjusted to 7.4. Assay buffer consisted of 50 mM HEPES supplemented with 5 mM EGTA, 5 mM MgCl2, 0.005% Tween 20 and pH was adjusted to 7.4. An 8% albumin stock consisted of HSA dissolved at 8% (w/v) in assay buffer. An 0.02% albumin stock consisted of HSA dissolved at 0.02% (w/v) in assay buffer.
The cells express the human GLP-1 receptor.
The cells were grown at 5% CO2 in DMEM, 10% fetal calf serum, 1% Pen/Strep (Penicillin/Streptomycin) and 1.0 mg/ml of the selection marker G418.
To make a membrane preparation the cells were grown to approximately 80% confluence. The cells were washed twice in phosphate-buffered saline and harvested. The cells were pelleted using a brief centrifugation and the cell pellet was kept on ice. The cell pellet was homogenised with ULTRA-THURRAX™ dispersing instrument for 20-30 seconds in a suitable amount of buffer 1 (e.g., 10 ml). The homogenate was centrifuged for 15 minutes. The pellet was re-suspended (homogenised) in 10 ml buffer 2 and centrifuged. This step was repeated once more. The resulting pellet was re-suspended in buffer 2 and the protein concentration was determined. The membranes were aliquoted and stored at minus 80° C.
For the receptor binding assay in the presence of low HSA (0.005%) 50 μl of the assay buffer was added to each well of an assay plate. Assay continued with step 3.
For the receptor binding assay in the presence of high HSA (2%) 50 μl of the 8% albumin stock was added to each well of an assay plate. Assay continued with step 3.
Cell membrane aliquots were thawed and diluted to their working concentration. Fifty μl were added to each well in the assay plate.
WGA SPA beads were suspended in assay buffer at 20 mg/ml. The suspension was diluted to 10 mg/ml in assay buffer just prior to addition to the assay plate. Fifty μl were added to each well in the assay plate.
The incubation was started by adding 25 μl of 480 pM solution of [^125I]-GLP-1]-(7-36)NH2 to each well of the assay plate. A 25 μl aliquot was reserved for measuring total counts/well.
The assay plate was incubated for 2 h at 30° C.
The assay plate was centrifuged for 10 min.
The assay plate was read in a Packard TopCount NXT instrument.
The data from the TopCount instrument were transferred to GraphPad Prism software. The software averaged the values for the replicates and performed a non-linear regression. IC50 values were calculated by the software and reported in nM.

human GLP-1 receptor [2] = biological target: T1, human GLP-1 receptor; experiment: In vitro potency: CRE luciferase reporter gene assay in BHK cells expressing the human GLP-1 receptor; type: cell-based; settings: whole cell reporter gene assay, BHK clone FCW467-12A/KZ10-1; averages of at least two replicates
Procedure: The purpose of this example is to test the activity, or potency, of the GLP-1 derivatives in vitro. The in vitro potency is the measure of human GLP-1 receptor activation in a whole cell assay.
In vitro potency was determined by measuring the response of the human GLP-1 receptor in a reporter gene assay. The assay was performed in a stably transfected BHK cell line that expresses the human GLP-1 receptor and contains the DNA for the cAMP response element (CRE) coupled to a promoter and the gene for firefly luciferase (CRE luciferase). When the human GLP-1 receptor is activated it results in the production of cAMP, which in turn results in the luciferase protein being expressed. When assay incubation is completed the luciferase substrate (luciferin) is added and the enzyme converts luciferin to oxyluciferin to produce bioluminescence. The luminescence is measured as the readout for the assay.
The cells were cultured at 5% CO2 in Cell Culture Medium. They were aliquoted and stored in liquid nitrogen. Before each assay an aliquot is taken up and washed twice in PBS before being suspended at the desired concentration in the assay specific buffer. For 96-well plates the suspension was made to give a final concentration of 5×10^3 cells/well.
The following chemicals were used in the assay: Pluronic F-68 (10%) (Gibco 2404), human serum albumin (HSA) (Sigma A9511), ovalbumin (Sigma A5503), DMEM w/o phenol red (Gibco 11880-028), 1 M Hepes (Gibco 15630), Glutamax 100× (Gibco 35050) and steadylite plus (PerkinElmer 6016757).
Cell Culture Medium consisted of DMEM medium with 10% FBS (Fetal Bovine Serum; Invitrogen 16140-071), 1 mg/ml G418 (Invitrogen 15140-122), 240 nM MTX (methotrexate; Sigma M9929) and 1% pen/strep (penicillin/streptomycin; Invitrogen 15140-122).
Assay Medium consisted of DMEM w/o phenol red, 10 mM Hepes and 1× Glutamax. The Assay Buffer consisted of 2% ovalbumin and 0.2% Pluronic F-68 in Assay Medium.
1) Cell stocks were thawed in a 37° C. water bath.
2) Cells were washed three times in PBS.
3) The cells were counted and adjusted to 5×10^3 cells/50 μl (1×10^5 cells/ml) in Assay Medium. A 50 μl aliquot of cells was transferred to each well in the assay plate.
4) Stocks of the test compounds and reference compounds were diluted to a concentration of 0.2 pM in Assay Buffer. […] Compounds were tested at the following final concentrations: 1×10^−7 M, 1×10^−8 M; 1×10^−9 M, 1×10^−10 M, 1×10^−11 M, 1×10^−12 M, 1×10^−13 M, and 1×10^−14 M. 6) The assay plate was incubated for 3 h in a 5% CO2 incubator at 37° C. 7) The assay plate was removed from the incubator and allowed to stand at room temperature for 15 min. 8) A 100 μl aliquot of steadylite plus reagent was added to each well of the assay plate (reagent was light sensitive). 9) Each assay plate was covered with aluminum foil to protect it from light and shaken for 30 min at room temperature. 10) Each assay plate was read in a Packard TopCount NXT instrument. Calculations and Results
The data from the TopCount instrument were transferred to GraphPad Prism software. The software performs a non-linear regression (log(agonist) vs response).
A minimum of two replicates was measured for each sample. The reported values are averages of the replicates.

in vivo = settings: male, Göttingen, minipig, iv
Procedure: (§1) The purpose of this study is to determine the protraction in vivo of the GLP-1 derivatives after i.v. administration to minipigs, i.e. the prolongation of their time in the body and thereby their time of action. This is done in a pharmacokinetic (PK) study, where the terminal half-life of the derivative in question is determined. By terminal half-life is meant the time it takes to halve a certain plasma concentration in the terminal elimination phase.
(§2) Male Göttingen minipigs were obtained from Ellegaard Göttingen Minipigs (Dalmose, Denmark) approximately 7-14 months of age and weighing approximately 16-35 kg were used in the studies. The minipigs were housed either individually (pigs with permanent catheters) or in a group and fed restrictedly once or twice daily with SDS minipig diet (Special Diets Services, Essex, UK).
(§3) After at least 2 weeks of acclimatisation two permanent central venous catheters were implanted in vena cava caudalis or cranialis in each animal. The animals were allowed 1 week recovery after the surgery, and were then used for repeated pharmacokinetic studies with a suitable wash-out period between successive GLP-1 derivative dosings.
(§4) Blood samples (for example 0.8 ml) were collected in EDTA buffer (8 mM) and then centrifuged at 4° C. and 1942G for 10 minutes.
(§5) Plasma was pipetted into Micronic tubes on dry ice, and kept at −20° C. until analysed for plasma concentration of the respective GLP-1 compound using LOCI. Individual plasma concentration-time profiles were analyzed by a non-compartmental pharmacokinetic method in Phoenix v. 6.2 (Pharsight Inc., Mountain View, Calif., USA), or other relevant software for PK analysis, and the resulting terminal half-lives (harmonic mean) determined.

[3] = Pharmacokinetic study in minipigs (i.v.); settings: male, Göttingen, minipig, in vivo, iv, 2 nmol/kg
Procedure: as §1, §2, §3, §4, §5

Row | Compound | Low HSA IC50 (human GLP-1 receptor [1]; Low HSA IC50, low serum albumin (max. 0.001% final assay concentration)) | EC50 (human GLP-1 receptor [2]) | half-life (in vivo) | IC50 (human GLP-1 receptor [1]) | half-life [3]
1 | CC[C@H](C)[C@H](NC(=O)[C@H](Cc1ccccc1)NC(=O)[C@H](CCC(=O)O)NC(=O)[C@H](CCCNC(=N)N)NC(=O)[C@H](C)NC(=O)[C@H](C)NC(=O)[C@H](CCC(N)=O)NC(=O)[C@H](CCCCNC(=O)COCCOCCNC(=O)COCCOCCNC(=O)COCCOCCNC(=O)COCCOCCNC(=O)COCCOCCNC(=O)[C@@H](N)CCCCNC(=O)[C@@H](N)CCCCNC(=O)CCCCCCCCCCCCCCCCC(=O)O)NC(=O)[C@H](CCC(=O)O)NC(=O)[C@H](CC(C)C)NC(=O)[C@H](Cc1ccc(O)cc1)NC(=O)[C@H](CCCCNC(=O)COCCOCCNC(=O)COCCOCCNC(=O)COCCOCCNC(=O)COCCOCCNC(=O)COCCOCCNC(=O)[C@@H](N)CCCCNC(=O)[C@@H](N)CCCCNC(=O)CCCCCCCCCCCCCCCCC(=O)O)NC(=O)[C@H](CO)NC(=O)[C@@H](NC(=O)[C@H](CC(=O)O)NC(=O)[C@H](CO)NC(=O)[C@@H](NC(=O)[C@H](Cc1ccccc1)NC(=O)[C@@H](NC(=O)CNC(=O)[C@H](CCC(=O)O)NC(=O)C(C)(C)NC(=O)[C@@H](N)Cc1c[nH]cn1)[C@@H](C)O)[C@@H](C)O)C(C)C)C(=O)N[C@@H](CCCCNC(=O)COCCOCCNC(=O)COCCOCCNC(=O)COCCOCCNC(=O)COCCOCCNC(=O)COCCOCCNC(=O)[C@@H](N)CCCCNC(=O)[C@@H](N)CCCCNC(=O)CCCCCCCCCCCCCCCCC(=O)O)C(=O)N[C@@H](Cc1c[nH]c2ccccc12)C(=O)N[C@@H](CC(C)C)C(=O)N[C@H](C(=O)N[C@@H](CCCNC(=N)N)C(=O)NCC(=O)N[C@@H](CCCNC(=N)N)C(=O)NCC(=O)O)C(C)C [Example 16] | 0.4 nM | 0.014 nM | – | – | –
2 | CC[C@H](C)[C@H](NC(=O)[C@H](Cc1ccccc1)NC(=O)[C@H](CCC(=O)O)NC(=O)[C@H](CCCNC(=N)N)NC(=O)[C@H](C)NC(=O)[C@H](C)NC(=O)[C@H](CCC(N)=O)NC(=O)[C@H](CCCCNC(=O)COCCOCCNC(=O)COCCOCCNC(=O)[C@@H](N)CCCCNC(=O)[C@@H](N)CCCCNC(=O)CCCCCCCCCCCCCCCS(=O)(=O)O)NC(=O)[C@H](CCC(=O)O)NC(=O)[C@H](CC(C)C)NC(=O)[C@H](Cc1ccc(O)cc1)NC(=O)[C@H](CCCCNC(=O)COCCOCCNC(=O)COCCOCCNC(=O)[C@@H](N)CCCCNC(=O)[C@@H](N)CCCCNC(=O)CCCCCCCCCCCCCCCS(=O)(=O)O)NC(=O)[C@H](CO)NC(=O)[C@@H](NC(=O)[C@H](CC(=O)O)NC(=O)[C@H](CO)NC(=O)[C@@H](NC(=O)[C@H](Cc1ccccc1)NC(=O)[C@@H](NC(=O)CNC(=O)[C@H](CCC(=O)O)NC(=O)C(C)(C)NC(=O)[C@@H](N)Cc1c[nH]cn1)[C@@H](C)O)[C@@H](C)O)C(C)C)C(=O)N[C@@H](CCCCNC(=O)COCCOCCNC(=O)COCCOCCNC(=O)[C@@H](N)CCCCNC(=O)[C@@H](N)CCCCNC(=O)CCCCCCCCCCCCCCCS(=O)(=O)O)C(=O)N[C@@H](Cc1c[nH]c2ccccc12)C(=O)N[C@@H](CC(C)C)C(=O)N[C@H](C(=O)N[C@@H](CCCNC(=N)N)C(=O)NCC(=O)N[C@@H](CCCNC(=N)N)C(=O)NCC(=O)O)C(C)C [Example 14] | – | 0.018 nM | 140 h | 100 nM | –
3 | I: H[Aib]EGTFTSDVSKYLEGQAARKFIAWLVRGRK / II: {C18 diacid-γGlu}-SSSSSS / III: {C18 diacid-γGlu}-SSSSSS / IV: {C18 diacid-γGlu}-SSSSSS (amide I:12-III:C, I:21-II:C, I:31-IV:C) [Example 9] | – | 0.067 nM | – | > 1000 nM | –
4 | CC[C@H](C)[C@H](NC(=O)[C@H](Cc1ccccc1)NC(=O)[C@H](CCC(=O)O)NC(=O)[C@H](CCCNC(=N)N)NC(=O)[C@H](C)NC(=O)[C@H](C)NC(=O)[C@H](CCC(N)=O)NC(=O)[C@H](CCCCNC(=O)COCCOCCNC(=O)COCCOCCNC(=O)CC[C@H](NC(=O)[C@H]1CC[C@H](CNC(=O)CCCCCCCCCCCCCCCS(=O)(=O)O)CC1)C(=O)O)NC(=O)[C@H](CCC(=O)O)NC(=O)[C@H](CC(C)C)NC(=O)[C@H](Cc1ccc(O)cc1)NC(=O)[C@H](CCCCNC(=O)COCCOCCNC(=O)COCCOCCNC(=O)CC[C@H](NC(=O)[C@H]1CC[C@H](CNC(=O)CCCCCCCCCCCCCCCS(=O)(=O)O)CC1)C(=O)O)NC(=O)[C@H](CO)NC(=O)[C@@H](NC(=O)[C@H](CC(=O)O)NC(=O)[C@H](CO)NC(=O)[C@@H](NC(=O)[C@H](Cc1ccccc1)NC(=O)[C@@H](NC(=O)CNC(=O)[C@H](CCC(=O)O)NC(=O)C(C)(C)NC(=O)[C@@H](N)Cc1c[nH]cn1)[C@@H](C)O)[C@@H](C)O)C(C)C)C(=O)N[C@@H](CCCCNC(=O)COCCOCCNC(=O)COCCOCCNC(=O)CC[C@H](NC(=O)[C@H]1CC[C@H](CNC(=O)CCCCCCCCCCCCCCCS(=O)(=O)O)CC1)C(=O)O)C(=O)N[C@@H](Cc1c[nH]c2ccccc12)C(=O)N[C@@H](CC(C)C)C(=O)N[C@H](C(=O)N[C@@H](CCCNC(=N)N)C(=O)NCC(=O)N[C@@H](CCCNC(=N)N)C(=O)NCC(=O)O)C(C)C [Example 1] | – | – | – | – | 162 h
